Source: paper PMC7583931 (International Journal of Molecular Sciences, 2020)
Read-outs that look alike come from different tables or passages of the source.

Key:
[1] = molecular target: T1, Human BBOX (γ-butyrobetaine hydroxylase) (Homo sapiens, UniProt O75936); assay: carnitine formation from gamma-butyrobetaine by UPLC/MS/MS; assay type: biochemical
T1 construct: gene BBOX1; human recombinant enzyme
T1 sequence (O75936 1-387): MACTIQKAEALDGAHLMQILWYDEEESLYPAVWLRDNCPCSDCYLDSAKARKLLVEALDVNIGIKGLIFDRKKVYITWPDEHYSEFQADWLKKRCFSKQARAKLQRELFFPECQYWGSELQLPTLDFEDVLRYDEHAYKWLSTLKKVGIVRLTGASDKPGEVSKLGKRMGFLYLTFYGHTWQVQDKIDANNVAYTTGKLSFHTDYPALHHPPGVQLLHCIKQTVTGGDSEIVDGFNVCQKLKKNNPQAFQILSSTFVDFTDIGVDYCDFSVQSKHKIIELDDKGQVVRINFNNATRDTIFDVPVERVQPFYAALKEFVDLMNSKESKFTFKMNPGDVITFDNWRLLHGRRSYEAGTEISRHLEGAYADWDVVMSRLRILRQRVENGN
Description: carnitine formation from gamma-butyrobetaine by UPLC/MS/MS on Human BBOX (γ-butyrobetaine hydroxylase)

[2] = molecular target: T2, hOCTN2 (carnitine/organic cation transporter OCTN2, SLC22A5) (Homo sapiens, UniProt O76082); assay: inhibition of L-carnitine uptake in hOCTN2-transfected cells; assay type: cell-based; conditions: 10 µM carnitine with (N-methyl-3H)-carnitine tracer, Na+ buffer pH 7.4, 37 °C
T2 sequence (O76082 1-557): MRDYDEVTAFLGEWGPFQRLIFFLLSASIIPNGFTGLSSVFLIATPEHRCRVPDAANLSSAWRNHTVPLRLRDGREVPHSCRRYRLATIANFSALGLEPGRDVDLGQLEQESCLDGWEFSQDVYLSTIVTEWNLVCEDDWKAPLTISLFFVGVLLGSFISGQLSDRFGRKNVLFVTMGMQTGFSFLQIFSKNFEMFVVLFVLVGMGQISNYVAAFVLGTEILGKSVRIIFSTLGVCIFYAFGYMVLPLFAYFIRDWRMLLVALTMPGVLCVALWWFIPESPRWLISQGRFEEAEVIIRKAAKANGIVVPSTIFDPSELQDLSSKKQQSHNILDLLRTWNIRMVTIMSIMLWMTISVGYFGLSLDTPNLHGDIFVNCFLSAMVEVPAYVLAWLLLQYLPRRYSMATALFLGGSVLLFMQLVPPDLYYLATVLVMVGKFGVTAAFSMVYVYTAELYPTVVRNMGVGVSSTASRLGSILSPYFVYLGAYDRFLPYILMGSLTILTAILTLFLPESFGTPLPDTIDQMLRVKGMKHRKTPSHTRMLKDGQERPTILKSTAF

| SMILES | IC50 [1] [µM] | IC50 ([1]; 200 µM GBB, 3 mM 2-oxoglutarate, 0.25 mM ferrous ammonium sulfate, 10 mM ascorbate, pH 7.0, 37 °C, 15 min preincubation) [µM] | carnitine uptake in presence of 50 μM compound [2] |
| --- | --- | --- | --- |
| Cc1ccc(NC(=O)CCC[N+](C)(C)C)cc1C [4j] | 97 ± 17 | – | – |
| C[N+](C)(C)CCCC(=O)NCCCc1ccccc1 [4t] | – | 76 ± 13 | – |
| C[N+](C)(C)CCCC(=O)Nc1ccc([N+](=O)[O-])cc1 [4k] | 78 ± 16 | – | significantly inhibited by TCL substrates, including 4i, 4j, and 4k |
